“Also recorded” adds a separate entry of the source.
How the values were obtained:
C57BL/6 mice = test: Fur colour scoring, chronic 8-week dosing in wild-type mice; format: in vivo, mouse; details: 8 and 50 μmol/kg p.o. once daily, 8 weeks
Procedure: Compound 1 and NB-360 were formulated as a suspension. […] Vehicle: […] in 0.5% methylcellulose in water.
Body weight was taken 3 times per week (Monday, Wednesday, Friday). Subjective scoring of any hair colour changes was performed once weekly (Wednesday). Scores (% of body with grey fur): 0: No change; 1: Spots; 2: >30%; 3: >50%; 4: >75%; 5: 100%. Animals were photo-documented when fur color change was observed. Final fur color scoring was performed blinded and by a person not involved in the study.

Aβ42 [1] = test: Acute PK/PD in APOE4-TR mice: Aβ42 in CSF; format: in vivo, mouse; details: for Average Aβ42 CSF ± SD: n = 6
Procedure: Compound 1 was formulated as a suspension. Vehicle or compound was given by oral administration in a volume of 10 ml/kg once. Vehicle: 0.1% Tween80 in 0.5% Methylcellulose in water.
Analysis of Aβ40 in Mouse Brain and Aβ40 and Aβ42 in CSF

Aβ38 = test: 3-month dose-ranging study: Aβ38 in CSF; format: in vivo, human
Source text: (§1) This study is listed in ClinicalTrials.gov under the NCT02576639 Identifier code.
(§2) The primary purpose of this study was to expand on previous safety and tolerability data obtained over 2-week and 4-week duration in the first in human study and thereby allow initiation of future long-term efficacy trials in subjects at risk of AD. In addition, data relevant for Pharmacokinetic/Pharmacodynamic modeling was obtained in order to support dose selection decisions for future efficacy studies.

[2] = 3-month dose-ranging study: safety and tolerability; format: in vivo, human; details: healthy elderly subjects, once-daily 2, 10, 35 and 85 mg over three months
Source text: as §1, §2

Aβ40 = test: Triton TX-100 soluble Aβ40 in APP23 mouse brain; format: in vivo; details: APP23 mice
Procedure: (§3) Frozen mouse forebrains were weighed and homogenized in 9 volumes (w/v) of ice-cold TBS-Complete (20 mM Tris-HCl pH 7.4, 137 mM NaCl, 1× Complete [Protease Inhibitor Cocktail Tablets: 1 836 145, Roche Diagnostics GmbH, Penzberg, Germany]) by sonication (90% duty cycle, output control 5, 40-55 pulses, [Sonifier 450, Branson]). After homogenization several 50 μl aliquots were prepared for analysis and were stored at −80° C.
Human Aβ40 and 42 in mice was determined with the Meso Scale Discovery (MSD) 96-well MULTI-ARRAY human/rodent (6E10) Aβ40/42 Assay (Meso Scale Discovery, Rockville, Md., USA). The assay was performed according to the manufacturer's instructions except for the calibration curve and the sample preparations. TritonX-100 (TX-100) soluble Aβ40 and 42 was extracted from forebrain with 1% TX-100 using a 50 μl aliquot of each 1:10 forebrain homogenate, mixed with 50 μl 2% TX-100 in TBS complete (20 mM Tris-HCl pH 7.4, 137 mM NaCl, 1× Complete [Protease Inhibitor Cocktail Tablets: 1 836 145, Roche Diagnostics GmbH, Penzberg Germany]) to reach a final concentration of 1% TX-100 and a 1:20 forebrain dilution. The samples were incubated for 15 min on ice and vortexed every 5 min. The samples were ultra-centrifuged (100000×g, 4° C., 15 min) and 50 μl of the clear supernatants were transferred to fresh tubes. The supernatants were further diluted 1:5 in 3% Blocker A solution (from kit) to a final forebrain dilution of 1:100 and applied to the plate.
(§4) The calibration curve was prepared in a corresponding dilution of 1% Blocker A solution spiked with synthetic Aβ1-40 peptide (1.56-100 pg/ml) except for non-transgenic mouse brain samples: In this case, the calibration curve was prepared in a correspondingly diluted APP knockout mouse forebrain spiked with synthetic Aβ1-40 peptide (1.56-100 pg/ml). For all samples and standards 25 μl were applied per well. For each determination duplicate wells were done. The mean values from the duplicate wells were used for calculations. The relative units for samples and standards were imported into SOFTmax PRO 4.0 for calculation of standard curves and quantification of samples.
Brain homogenates were extracted with 1% Triton X-100 in buffer and the resulting supernatant was considered to represent soluble forms of APP metabolites. In addition to Aβ40 and 42, we determined the N-terminal APP fragments sAPPα (direct cleavage product of α-secretase) and sAPPβ (Swe) (direct product of BACE1 cleavage). […] Since no change in the APP expression and Aβ generation is known to happen during this age, it is assumed that the increased values in the vehicle group (18-20 mo old) arise from “leakage” out of the Aβ deposits (which increase several fold, see below).

Aβ42 [3] = test: Triton TX-100 soluble Aβ42 in APP23 mouse brain; format: in vivo; details: APP23 mice
Procedure: as §3
Human Aβ40 and 42 in mice was determined with the Meso Scale Discovery (MSD) 96-well MULTI-ARRAY human/rodent (6E10) Aβ40/42 Assay (Meso Scale Discovery, Rockville, Md., USA). The assay was performed according to the manufacturer's instructions except for the calibration curve and the sample preparations. […]
as §4, with “For all samples and standards 25 μl were applied per well. For each determination duplicate wells were done. The mean values from the duplicate wells were used for calculations.” left out, “samples. […]” for “samples.”

total Aβ (40+42) = test: Formic acid soluble total Aβ (40+42) and Aβ42/40 ratio in APP23 mouse forebrain; format: in vivo
Procedure: as §3
Fifty microliter of forebrain homogenate was mixed with 116.6 μl 100% formic acid, resulting in a final formic acid concentration of 70%. Samples were stored on ice and vortexed every 5 minutes. For neutralization, 50 μl of the mixture were pipetted into a new tube, and 950 μl of 1 M Tris base, containing 1× Complete Protease inhibitor, was added. Tubes were stored at room temperature overnight and then centrifuged for 15 minutes at 14000 rpm in an Eppendorf Microzentrifuge at 4° C. From the top layer, 100 μl are removed and mixed with 100 μl of 3% Blocker A solution (part of the MesoScale assay kit). This sample was either directly applied to the assay plate (dilution 1:1332) or further diluted in 1% Blocker A solution.

Structure (SMILES): C[C@@]1(c2nc(NC(=O)c3ncc(C(F)(F)F)cc3Cl)ccc2F)CO[C@@](C)(C(F)(F)F)C(N)=N1 [Compound 1, N-(6-((3R,6R)-5-amino-3,6-dimethyl-6-(trifluoromethyl)-3,6-dihydro-2H-1,4-oxazin-3-yl)-5-fluoropyridin-2-yl)-3-chloro-5-(trifluoromethyl)picolinamide]
- fur colour change (C57BL/6 mice): no apparent fur color change detectable; also recorded: did not show signs of hair discoloration
- Mini AUEC (CSF Aβ42) (Aβ42 [1]; 3 μmol/kg acute): 38%
- Average Aβ42 CSF ± SD (Aβ42 [1]; 3 μmol/kg acute p.o., 4 h): 0.0524 ± 0.02173 pmol/mL
- Average Aβ42 CSF ± SD (Aβ42 [1]; 3 μmol/kg acute p.o., 24 h): 0.09317 ± 0.05304 pmol/mL
- % reduction vs vehicle (CSF Aβ42) (Aβ42 [1]; 3 μmol/kg acute, 4 h): 55%
- % reduction vs vehicle (CSF Aβ42) (Aβ42 [1]; 3 μmol/kg acute, 24 h): 21%
- Mini AUEC (CSF Aβ42) (Aβ42 [1]; 10 μmol/kg acute): 50%
- Average Aβ42 CSF ± SD (Aβ42 [1]; 10 μmol/kg acute p.o., 4 h): 0.02318 ± 0.00446 pmol/mL
- Average Aβ42 CSF ± SD (Aβ42 [1]; 10 μmol/kg acute p.o., 24 h): 0.09438 ± 0.09019 pmol/mL
- % reduction vs vehicle (CSF Aβ42) (Aβ42 [1]; 10 μmol/kg acute, 4 h): 80%
- % reduction vs vehicle (CSF Aβ42) (Aβ42 [1]; 10 μmol/kg acute, 24 h): 20%
- Mini AUEC (CSF Aβ42) (Aβ42 [1]; 30 μmol/kg acute): 81%
- Average Aβ42 CSF ± SD (Aβ42 [1]; 30 μmol/kg acute p.o., 4 h): 0.0080 ± 0.00395 pmol/mL
- Average Aβ42 CSF ± SD (Aβ42 [1]; 30 μmol/kg acute p.o., 24 h): 0.03717 ± 0.02438 pmol/mL
- % reduction vs vehicle (CSF Aβ42) (Aβ42 [1]; 30 μmol/kg acute, 4 h): 93%
- % reduction vs vehicle (CSF Aβ42) (Aβ42 [1]; 30 μmol/kg acute, 24 h): 68%
- Aβ38 in CSF percent change from baseline, Difference (90% CI) Cmpd 1-Placebo (Aβ38; month 3, 2 mg QD): −18.17 (−21.49, −14.85) %
- Aβ38 in CSF percent change from baseline, LSmean (SE) (Aβ38; month 3, 2 mg QD): −20.58 (1.397) %
- Aβ38 in CSF percent change from baseline, Difference (90% CI) Cmpd 1-Placebo (Aβ38; month 3, 10 mg QD): −60.18 (−63.54, −56.83) %
- Aβ38 in CSF percent change from baseline, LSmean (SE) (Aβ38; month 3, 10 mg QD): −62.60 (1.430) %
- Aβ38 in CSF percent change from baseline, Difference (90% CI) Cmpd 1-Placebo (Aβ38; month 3, 35 mg QD): −80.55 (−83.83, −77.27) %
- Aβ38 in CSF percent change from baseline, LSmean (SE) (Aβ38; month 3, 35 mg QD): −82.96 (1.366) %
- Aβ38 in CSF percent change from baseline, Difference (90% CI) Cmpd 1-Placebo (Aβ38; month 3, 85 mg QD): −86.81 (−90.22, −83.41) %
- Aβ38 in CSF percent change from baseline, LSmean (SE) (Aβ38; month 3, 85 mg QD): −89.23 (1.470) %
- safety and tolerability [2]: safe and tolerated
- Aβ40 change vs vehicle (Triton TX-100 soluble, brain) (Aβ40; 0.03 g/kg vs vehicle): −4.6%
- Aβ40 change vs vehicle (Triton TX-100 soluble, brain) (Aβ40; 0.3 g/kg vs vehicle): −43.7%
- treatment effects on soluble Aβ species (brain tissue and CSF Aβ40) (Aβ40; high dose): −43.7 to −77%
- treatment effects on soluble Aβ species (brain tissue and CSF Aβ40) (Aβ40; low dose): −4.6 to −20%
- Aβ42 change vs vehicle (Triton TX-100 soluble, brain) (Aβ42 [3]; 0.03 g/kg vs vehicle): −20.1%
- Aβ42 change vs vehicle (Triton TX-100 soluble, brain) (Aβ42 [3]; 0.3 g/kg vs vehicle): −77.3%
- Formic acid soluble Total Aβ change vs vehicle (total Aβ (40+42); APP23, 0.03 g/kg vs vehicle): −17.9%
- Formic acid soluble Total Aβ change vs vehicle (total Aβ (40+42); APP23, 0.3 g/kg vs vehicle): −79.8%
- reduction of deposited Aβ40 and Aβ42 vs vehicle (total Aβ (40+42); APP23, high dose): around 80%
- reduction of deposited Aβ40 and Aβ42 compared to vehicles (total Aβ (40+42); APP23, low dose): around 17%
